Results taken from PubChem BioAssay (NCI).
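All cell lines were grown in 96-well plates and treated with compound for 48 hours. TGI: total growth inhibition.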

Experiments:
Test in all cases: growth of human tumour cells (NCI), 48 h
SW-620 colon = tested on: SW-620 colon
NCI-H522 lung = tested on: NCI-H522 lung
EKVX NSCLC = tested on: EKVX NSCLC
SN12C renal = tested on: SN12C renal
RPMI-8226 leukemia = tested on: RPMI-8226 leukemia
SF-268 CNS = tested on: SF-268 CNS
U251 CNS = tested on: U251 CNS
CCRF-CEM leukemia = tested on: CCRF-CEM leukemia
NCI-H460 lung = tested on: NCI-H460 lung
786-0 renal = tested on: 786-0 renal
M14 melanoma = tested on: M14 melanoma
UACC-257 melanoma = tested on: UACC-257 melanoma
RXF 393 renal = tested on: RXF 393 renal
MDA-MB-435 = tested on: MDA-MB-435
HS 578T breast = tested on: HS 578T breast
HCT-116 colon = tested on: HCT-116 colon
BT-549 breast = tested on: BT-549 breast
A498 renal = tested on: A498 renal
HCT-15 colon = tested on: HCT-15 colon
MOLT-4 leukemia = tested on: MOLT-4 leukemia
SF-539 CNS = tested on: SF-539 CNS
OVCAR-8 ovarian = tested on: OVCAR-8 ovarian
CAKI-1 renal = tested on: CAKI-1 renal
PC-3 prostate = tested on: PC-3 prostate
SNB-19 CNS = tested on: SNB-19 CNS
HOP-62 NSCLC = tested on: HOP-62 NSCLC
SK-MEL-28 melanoma = tested on: SK-MEL-28 melanoma
SNB-75 CNS = tested on: SNB-75 CNS
ACHN renal = tested on: ACHN renal
OVCAR-5 ovarian = tested on: OVCAR-5 ovarian
SK-MEL-5 melanoma = tested on: SK-MEL-5 melanoma
MALME-3M melanoma = tested on: MALME-3M melanoma
OVCAR-4 ovarian = tested on: OVCAR-4 ovarian
MDA-N = tested on: MDA-N
DU-145 prostate = tested on: DU-145 prostate
COLO 205 colon = tested on: COLO 205 colon
A549 NSCLC = tested on: A549 NSCLC
HOP-92 NSCLC = tested on: HOP-92 NSCLC
NCI/ADR-RES ovarian = tested on: NCI/ADR-RES ovarian
NCI-H226 lung = tested on: NCI-H226 lung
MDA-MB-231 breast = tested on: MDA-MB-231 breast
K-562 leukemia = tested on: K-562 leukemia
HCC-2998 colon = tested on: HCC-2998 colon
KM12 colon = tested on: KM12 colon
SF-295 CNS = tested on: SF-295 CNS
LOX IMVI melanoma = tested on: LOX IMVI melanoma
SK-MEL-2 melanoma = tested on: SK-MEL-2 melanoma
MCF7 breast = tested on: MCF7 breast
UO-31 renal = tested on: UO-31 renal
OVCAR-3 ovarian = tested on: OVCAR-3 ovarian
NCI-H23 lung = tested on: NCI-H23 lung
T-47D breast = tested on: T-47D breast
HT29 colon = tested on: HT29 colon
IGROV1 ovarian = tested on: IGROV1 ovarian
SK-OV-3 ovarian = tested on: SK-OV-3 ovarian
UACC-62 melanoma = tested on: UACC-62 melanoma
HL-60(TB) leukemia = tested on: HL-60(TB) leukemia
TK-10 renal = tested on: TK-10 renal

`CC(=Nc1ccc(Cl)cc1)c1ccncc1` was tested, and the TGI (SW-620 colon) was > 100 µM, the TGI (NCI-H522 lung) was > 100 µM and the TGI (EKVX NSCLC) was > 100 µM. For the same compound, the TGI (SN12C renal) was > 100 µM, the TGI (RPMI-8226 leukemia) was > 100 µM and the TGI (SF-268 CNS) was > 100 µM. For the same compound, the TGI (U251 CNS) was > 100 µM, the TGI (CCRF-CEM leukemia) was > 100 µM and the TGI (NCI-H460 lung) was > 100 µM. For the same compound, the TGI (786-0 renal) was > 100 µM, the TGI (M14 melanoma) was > 100 µM and the TGI (UACC-257 melanoma) was > 100 µM. For the same compound, the TGI (RXF 393 renal) was > 100 µM, the TGI (MDA-MB-435) was > 100 µM and the TGI (HS 578T breast) was > 100 µM. For the same compound, the TGI (HCT-116 colon) was > 100 µM, the TGI (BT-549 breast) was > 100 µM and the TGI (A498 renal) was > 100 µM. The TGI (HCT-15 colon) was > 100 µM, the TGI (MOLT-4 leukemia) was > 100 µM and the TGI (SF-539 CNS) was 77.9 µM. For the same compound, the TGI (OVCAR-8 ovarian) was > 100 µM, the TGI (CAKI-1 renal) was > 100 µM and the TGI (PC-3 prostate) was > 100 µM. The TGI (SNB-19 CNS) was > 100 µM, the TGI (HOP-62 NSCLC) was > 100 µM and the TGI (SK-MEL-28 melanoma) was > 100 µM. The TGI (SNB-75 CNS) was > 100 µM, the TGI (ACHN renal) was > 100 µM and the TGI (OVCAR-5 ovarian) was > 100 µM. The TGI (SK-MEL-5 melanoma) was > 100 µM, the TGI (MALME-3M melanoma) was > 100 µM and the TGI (OVCAR-4 ovarian) was > 100 µM. The TGI (MDA-N) was > 100 µM, the TGI (DU-145 prostate) was > 100 µM and the TGI (COLO 205 colon) was > 100 µM. The TGI (A549 NSCLC) was > 100 µM, the TGI (HOP-92 NSCLC) was > 100 µM and the TGI (NCI/ADR-RES ovarian) was > 100 µM. For the same compound, the TGI (NCI-H226 lung) was > 100 µM, the TGI (MDA-MB-231 breast) was > 100 µM and the TGI (K-562 leukemia) was > 100 µM. The TGI (HCC-2998 colon) was > 100 µM, the TGI (KM12 colon) was > 100 µM and the TGI (SF-295 CNS) was > 100 µM. For the same compound, the TGI (LOX IMVI melanoma) was > 100 µM, the TGI (SK-MEL-2 melanoma) was > 100 µM and the TGI (MCF7 breast) was > 100 µM. The TGI (UO-31 renal) was > 100 µM, the TGI (OVCAR-3 ovarian) was > 100 µM and the TGI (NCI-H23 lung) was > 100 µM. The TGI (T-47D breast) was > 100 µM and the TGI (HT29 colon) was > 100 µM.
`NC(=O)C1=C(O)[C@@]2(O)C(=O)C3=C(O)c4c(O)cccc4CC3C[C@H]2CC1=O` (stereo partly specified) gave a TGI (SW-620 colon) of 33.6 µM, a TGI (NCI-H522 lung) of 7.72 µM and a TGI (EKVX NSCLC) of 9.23 µM. The TGI (SN12C renal) was 14.5 µM, the TGI (RPMI-8226 leukemia) was 6.12 µM and the TGI (IGROV1 ovarian) was 12.5 µM. The TGI (SF-268 CNS) was 17.8 µM, the TGI (U251 CNS) was 12.8 µM and the TGI (CCRF-CEM leukemia) was 10.4 µM. The TGI (SK-OV-3 ovarian) was > 28.7 µM, the TGI (NCI-H460 lung) was 11.8 µM and the TGI (786-0 renal) was 17.6 µM. For the same compound, the TGI (M14 melanoma) was 13.2 µM, the TGI (UACC-257 melanoma) was 28.6 µM and the TGI (RXF 393 renal) was 9.58 µM. It also gave a TGI (UACC-62 melanoma) of 8.61 µM, a TGI (MDA-MB-435) of 40.2 µM and a TGI (HS 578T breast) of 13.7 µM. For the same compound, the TGI (HCT-116 colon) was 12 µM, the TGI (BT-549 breast) was 9.46 µM and the TGI (A498 renal) was 12.9 µM. For the same compound, the TGI (HCT-15 colon) was 6.21 µM, the TGI (MOLT-4 leukemia) was 10.6 µM and the TGI (SF-539 CNS) was 13.4 µM. The TGI (OVCAR-8 ovarian) was 17.3 µM, the TGI (CAKI-1 renal) was 26.7 µM and the TGI (HL-60(TB) leukemia) was 14.9 µM. The TGI (PC-3 prostate) was 9.71 µM, the TGI (SNB-19 CNS) was 10.9 µM and the TGI (HOP-62 NSCLC) was 14.1 µM. The TGI (SK-MEL-28 melanoma) was 22.8 µM, the TGI (SNB-75 CNS) was 8.35 µM and the TGI (ACHN renal) was 19.5 µM. The TGI (OVCAR-5 ovarian) was 12.3 µM, the TGI (SK-MEL-5 melanoma) was 3.67 µM and the TGI (MALME-3M melanoma) was 5.23 µM. The TGI (OVCAR-4 ovarian) was > 85.1 µM, the TGI (MDA-N) was 41.2 µM and the TGI (DU-145 prostate) was 18.6 µM. It also gave a TGI (COLO 205 colon) of 3.17 µM, a TGI (A549 NSCLC) of 14.9 µM and a TGI (HOP-92 NSCLC) of 6.05 µM. The TGI (NCI/ADR-RES ovarian) was 13.7 µM, the TGI (NCI-H226 lung) was 8.43 µM and the TGI (TK-10 renal) was 43.7 µM. For the same compound, the TGI (MDA-MB-231 breast) was 11.1 µM, the TGI (K-562 leukemia) was > 61.5 µM and the TGI (HCC-2998 colon) was 16.1 µM. The TGI (KM12 colon) was 23.4 µM, the TGI (SF-295 CNS) was 13.5 µM and the TGI (LOX IMVI melanoma) was 10.5 µM. For the same compound, the TGI (SK-MEL-2 melanoma) was 4.72 µM, the TGI (MCF7 breast) was > 49.9 µM and the TGI (UO-31 renal) was 10.5 µM. The TGI (OVCAR-3 ovarian) was 14.7 µM, the TGI (NCI-H23 lung) was 8.89 µM and the TGI (T-47D breast) was 23.8 µM. The TGI (HT29 colon) was 7.34 µM.
